According to patent US8940739B2, “Compound of a reverse-turn mimetic and a production method and use therefor” (JW Pharmaceutical Corporation, priority 2010, dated 2015):
In brackets after ≈: the same amount, converted by molar mass.

Legend:
[1] = test system: MV-4-11 (human, Acute Myeloid Leukemia cell line) cells; experiment: Cell growth inhibition assay, GI50 of MV-4-11; assay type: cell-based; settings: Homo sapiens, MV4-11, 72 h, MV-4-11 cells
In short: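 MV-4-11 AML cells (5×10^4/well, IMDM with 10% FBS) treated in duplicate with serially diluted compounds for 72 hours at 37 °C. Viability read as absorbance at 490 nm after CellTiter 96 Aqueous One (MTS) addition; GI50 calculated from the concentration-response.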

[2] = target: cDNA-expressed human hepatic CYP3A4 (Homo sapiens (Human), UniProt P08684); experiment: Measurement of CYP (IC50 of P450 CYP3A4), BFC substrate; assay type: in vitro ADME; settings: 20 minutes
Chain of cDNA-expressed human hepatic CYP3A4 (P08684 whole entry): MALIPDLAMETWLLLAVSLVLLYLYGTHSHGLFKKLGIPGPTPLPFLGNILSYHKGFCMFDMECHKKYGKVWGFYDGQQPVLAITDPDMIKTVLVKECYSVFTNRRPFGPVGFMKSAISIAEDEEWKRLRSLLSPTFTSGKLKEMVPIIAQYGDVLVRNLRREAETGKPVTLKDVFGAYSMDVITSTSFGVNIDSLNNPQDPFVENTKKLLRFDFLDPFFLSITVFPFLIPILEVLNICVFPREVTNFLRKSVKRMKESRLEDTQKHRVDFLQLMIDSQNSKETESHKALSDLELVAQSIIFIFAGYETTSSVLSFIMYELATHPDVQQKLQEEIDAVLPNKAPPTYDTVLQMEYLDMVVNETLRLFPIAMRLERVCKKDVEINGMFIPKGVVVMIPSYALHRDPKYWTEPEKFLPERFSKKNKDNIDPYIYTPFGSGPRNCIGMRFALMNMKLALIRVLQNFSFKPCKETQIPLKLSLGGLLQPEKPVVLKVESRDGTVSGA
In short: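 cDNA-expressed human CYP3A4 supersomes in 0.1M potassium phosphate pH 7.4 with 8.3 mM MgCl2, 1.67 mM EDTA and 0.25 mM NADPH; compounds in acetonitrile (<1% final). Reaction started with 30 µM BFC, 20 min at 37. 7-Hydroxy-4-trifluoromethyl-coumarin read by fluorescence (ex 409/em 530 nm).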

[3] = MLM, hepatic metabolic stability; assay type: in vitro ADME; settings: mouse hepatic microsome, amount at 30 minutes compared with 0 minutes
Description: For the sake of retaining efficacy of novel drugs and preventing side-effects, hepatic metabolic stability is regarded as very important. Hepatic metabolic stability is typically determined using microsome or S9. In the present test, a microsome having CYP450 as a main component, which plays a great role in metabolism, was used to evaluate the metabolic stability.
This assay was performed in a 200 l volume in a 13 ml glass tube using mouse hepatic microsome whose activity was measured.
The compounds of Examples 1 to 5 were dissolved in DMSO (dimethyl sulfoxide) to prepare a 25 mM stock solution, which was then diluted with 50% acetonitrile and used in the test. A potassium phosphate buffer (pH 7.4, final concentration 0.1M), MgCl2 (final concentration 0.1M), a diluted inventive compound stock solution (final concentration 1 mM), and a mouse microsome (final concentration 5 mg/ml) were added to the glass tube. The reaction was initiated by the addition of a cofactor NADPH (final concentration 12.5 mM) after pre-incubation at 37 for 3 minutes. The reaction was carried out at 37 for 10 minutes and 30 minutes, and then terminated with 1000 μl of acetonitrile, and the remaining inventive compound was extracted. The centrifugation was conducted at 3000 rpm for 10 minutes, after which the supernatant was dried and dissolved again in 150 μl of 50% acetonitrile and quantitatively analyzed by HPLC. 0 minutes and 30 minutes after reaction, the amounts of the compounds of the present invention were compared thus evaluating the extent of metabolic stability.

[4] = Solubility in physiological saline; assay type: physicochemical; settings: saline or isotonic, thermodynamic from solid, 10 mg in 0.25 ml
Description: 2) Evaluation of Solubility of Compound E-5
Compound E-5, Compound E-5•HCl, and Compound E-5•H2SO4 were respectively weighed to 10 mg, and 0.25 ml of physiological saline was added, and they were vortex mixed. The supernatant was filtered with a 0.22 μm filter and quantitatively analyzed by HPLC.

[5] = Blood drug concentration upon intravenous administration; assay type: in vivo; settings: SD rat, 12.5 mg/kg
Description: Compound E-5 was intravenously injected in 12.5 mg/kg to SD rat. 5, 15, 30, […], 120, 240, 1140 minutes after injection, the blood was taken and the drug concentration in the blood was quantitatively analyzed using an analyzer HPLC/MS/MS.

GI50 [1]	IC50 [2]	MLM (%) [3]	solubility [4]	AUC [5]	half-life ([5]; read-out: Half-life (t ½, hr) (converted))	SMILES
1.4 nM	12.2 µM	34.9%	–	–	–	C=CCN1CC(=O)N2[C@@H](Cc3ccc(O)cc3)C(=O)N(Cc3cccc4c(C(=O)Nc5ccc(N6CCCCC6)nc5)cn(C)c34)C[C@@H]2N1C(=O)NCc1ccccc1 [Compound G-35]
1.3 nM	21.1 µM	36%	–	–	–	C=CCN1CC(=O)N2C(CN(Cc3cccc4c(C(=O)Nc5ccc(N6CCOCC6)nc5)cn(C)c34)C(=O)[C@@H]2Cc2ccc(O)cc2)N1C(=O)NCc1ccccc1 (stereo partly drawn) [Compound G-36]
6.5 nM	21.5 µM	52.8%	–	–	–	C=CCN1CC(=O)N2C(Cc3ccc(O)cc3)C(=O)N(Cc3cccc4c(C(=O)Nc5ccc(N6CCN(Cc7ccc(OC)cc7)CC6)nc5)cn(C)c34)CC2N1C(=O)NCc1ccccc1 (stereo not drawn) [Compound G-60]
4.9 nM	> 25 µM	61.9%	–	–	–	C=CCN1CC(=O)N2C(Cc3ccc(O)cc3)C(=O)N(Cc3cccc4c(C(=O)Nc5ccc(N6CCN(c7ccccc7OC)CC6)nc5)cn(C)c34)CC2N1C(=O)NCc1ccccc1 (stereo not drawn) [Compound G-59]
–	> 25 µM	74%	–	–	–	C=CCN1CC(=O)N2[C@@H](Cc3ccc(O)cc3)C(=O)N(Cc3cccc4c(-c5ccc(NC(=S)NC(=O)c6ccccc6)nc5)cn(C)c34)C[C@@H]2N1C(=O)NCc1ccccc1 [Compound H-5]
15 nM	> 25 µM	66.8%	–	–	–	C=CCN1CC(=O)N2[C@@H](Cc3ccc(O)cc3)C(=O)N(Cc3cccc4c(-c5ccc(NC(=S)NC(=O)OCC)nc5)cn(C)c34)C[C@@H]2N1C(=O)NCc1ccccc1 [Compound H-4]
–	23.7 µM	85.1%	–	–	–	C=CCN1CC(=O)N2C(Cc3ccc(O)cc3)C(=O)N(Cc3cccc4c(C(=O)Nc5ccc(N6CCN(c7ccc(C(F)(F)F)cc7)CC6)nc5)cn(C)c34)CC2N1C(=O)NCc1ccccc1 (stereo not drawn) [Compound G-58]

More lines, now with the values behind:

SMILES	GI50 [1]	IC50 [2]	MLM (%) [3]	solubility [4]	AUC [5]	half-life ([5]; read-out: Half-life (t ½, hr) (converted))
C=CCN1CC(=O)N2[C@@H](Cc3ccc(O)cc3)C(=O)N(Cc3cccc4c(-c5ccc(NC(=O)Nc6ccc(OC)nc6)cc5)cn(C)c34)C[C@@H]2N1C(=O)NCc1ccccc1 [Compound B, (6S,9aS)-2-allyl-N-benzyl-6-(4-hydroxybenzyl)-8-((3-(4-(3-(6-methoxypyridin-3-yl)ureido)phenyl)-1-methyl-1H-indol-7-yl)methyl)-4,7-dioxooctahydro-1H-pyrazino[2,1-c][1,2,4]-triazine-1-carboxamide]	6.5 nM	> 25 µM	65%	–	–	–
C=CCN1CC(=O)N2[C@@H](Cc3ccc(O)cc3)C(=O)N(Cc3cccc4c(C(=O)N5CCN(CC6CCNCC6)CC5)cn(C)c34)C[C@@H]2N1C(=O)NCc1ccccc1 [Compound E-23]	–	8.17 µM	73.8%	–	–	–
C=CCN1CC(=O)N2[C@@H](Cc3ccc(O)cc3)C(=O)N(Cc3cccc4c(-c5ccc(C(=O)NC6CCC(NC(=O)OC(C)(C)C)CC6)cc5)cn(C)c34)C[C@@H]2N1C(=O)NCc1ccccc1 (stereo partly drawn) [Compound D-31]	1.5 nM	> 25 µM	107%	–	–	–
C=CCN1CC(=O)N2[C@@H](Cc3ccc(O)cc3)C(=O)N(Cc3cccc4c(-c5ccc(NC(=O)Nc6ccccc6)nc5)cn(C)c34)C[C@@H]2N1C(=O)NCc1ccccc1 [Compound D-85]	9.5 nM	> 25 µM	64.3%	–	–	–
C=CCN1CC(=O)N2[C@@H](Cc3ccc(O)cc3)C(=O)N(Cc3cccc4c(-c5ccc(NC(=O)Nc6ccc(OC)nc6)cc5)cn(C)c34)C[C@@H]2N1C(=O)NCc1ccccc1 [Compound D-77]	6.5 nM	> 25 µM	65.4%	–	–	–
C=CCN1CC(=O)N2[C@@H](Cc3ccc(O)cc3)C(=O)N(Cc3cccc4c(-c5ccc(NC(=O)NCc6ccccc6)nc5)cn(C)c34)C[C@@H]2N1C(=O)NCc1ccccc1 [Compound D-93]	16.1 nM	20.4 µM	68.5%	–	–	–
C=CCN1CC(=O)N2[C@@H](Cc3ccc(O)cc3)C(=O)N(Cc3cccc4c(-c5ccc(NC(=O)Nc6ccccc6)nc5)cn(C)c34)C[C@@H]2N1C(=O)NCc1ccccc1 [Compound C, (6S,9aS)-2-allyl-N-benzyl-6-(4-hydroxybenzyl)-8-((1-methyl-3-(6-(3-phenylureido)pyridine-3-yl)-1H-indol-7-yl)methyl)-4,7-dioxooctahydro-1H-pyrazino[2,1-c][1,2,4]-triazine-1-carboxamide]	9.5 nM	> 25 µM	64%	–	–	–
C=CCN1CC(=O)N2[C@@H](Cc3ccc(O)cc3)C(=O)N(Cc3cccc4c(-c5ccc(NC(=O)NC6CCCCC6)cc5)cn(C)c34)C[C@@H]2N1C(=O)NCc1ccccc1 [Compound D-74]	11.2 nM	> 25 µM	56.9%	–	–	–
C=CCN1CC(=O)N2[C@@H](Cc3ccc(O)cc3)C(=O)N(Cc3cccc4c(C(=O)N5CCC(NC(=O)c6ccc(N(C)C)cc6)CC5)cn(C)c34)C[C@@H]2N1C(=O)NCc1ccccc1 [Compound E-59]	–	> 25 µM	58.5%	–	–	–
C=CCN1CC(=O)N2[C@@H](Cc3ccc(O)cc3)C(=O)N(Cc3cccc4c(C(=O)N5CC(N6CCN(C)CC6)C5)cn(C)c34)C[C@@H]2N1C(=O)NCc1ccccc1 [Compound E-71]	–	> 25 µM	67.2%	–	–	–
C=CCN1CC(=O)N2[C@@H](Cc3ccc(O)cc3)C(=O)N(Cc3cccc4c(-c5ccc(C(=O)NN6CCN(C)CC6)cc5)cn(C)c34)C[C@@H]2N1C(=O)NCc1ccccc1 [Compound D-45]	1.9 nM	2.51 µM	49.4%	–	–	–
C=CCN1CC(=O)N2[C@@H](Cc3ccc(O)cc3)C(=O)N(Cc3cccc4c(C(=O)N5CCN(CC)CC5)cn(C)c34)C[C@@H]2N1C(=O)NCc1ccccc1 [Compound E-5, (6S,9aS)-2-allyl-N-benzyl-8-((3-(4-ethylpiperazine-1-carbonyl)-1-methyl-1H-indol-7-yl)methyl)-6-(4-hydroxybenzyl)-4,7-dioxooctahydro-1H-pyrazino[2,1-c][1,2,4]-triazine-1-carboxamide]	11.6 nM	8.04 µM	–	68 µg/mL (≈ 92.8 µM)	4530 ng·h/mL	1.59 h
C=CCN1CC(=O)N2[C@@H](Cc3ccc(O)cc3)C(=O)N(Cc3cccc4c(C(=O)N5CCN(CCCN(C)C)CC5)cn(C)c34)C[C@@H]2N1C(=O)NCc1ccccc1 [Compound E-13]	–	> 25 µM	89.1%	–	–	–
C=CCN1CC(=O)N2[C@@H](Cc3ccc(O)cc3)C(=O)N(Cc3cccc4c(C(=O)N5CCC(N6CCN(C)CC6)CC5)cn(C)c34)C[C@@H]2N1C(=O)NCc1ccccc1 [Compound E-19]	–	> 25 µM	73.4%	–	–	–
C=CCN1CC(=O)N2[C@@H](Cc3ccc(O)cc3)C(=O)N(Cc3cccc4c(-c5ccc(NC(=O)Nc6ccccc6)cc5)cn(C)c34)C[C@@H]2N1C(=O)NCc1ccccc1 [Compound D-73]	14.4 nM	> 25 µM	73.4%	–	–	–
C=CCN1CC(=O)N2[C@@H](Cc3ccc(O)cc3)C(=O)N(Cc3cccc4c(-c5ccc(C(=O)Nc6ccc(N7CCN(C(C)=O)CC7)cc6)cc5)cn(C)c34)C[C@@H]2N1C(=O)NCc1ccccc1 [Compound D-10]	1.3 nM	> 25 µM	88%	–	–	–
C=CCN1CC(=O)N2[C@@H](Cc3ccc(O)cc3)C(=O)N(Cc3cccc4c(C(=O)NCCCC(=O)O)cn(C)c34)C[C@@H]2N1C(=O)NCc1ccccc1 [Compound F-24]	–	> 25 µM	84.2%	–	–	–
C=CCN1CC(=O)N2[C@@H](Cc3ccc(O)cc3)C(=O)N(Cc3cccc4c(-c5ccc(NC(=O)c6ccc(N)nc6)cc5)cn(C)c34)C[C@@H]2N1C(=O)NCc1ccccc1 [Compound D-69]	1.1 nM	> 25 µM	65%	–	–	–
